Test results taken from article PMC5218480 (PLoS ONE, 2017).

System: MV-4-11 cells
Test: Gene expression microarray analysis (Affymetrix PrimeView) and GSEA
Type: cell-based, human
Set-up: RFU PODN (11730768_x_at) / Fold change /veh PODN (11730768_x_at) / RFU LINC00158 (11744669_a_at) / Fold change /veh LINC00158 (11744669_a_at) / RFU DUSP10 (11751237_a_at) / Fold change /veh DUSP10 (11751237_a_at) / RFU ID3 (11757404_x_at) / Fold change /veh ID3 (11757404_x_at) / RFU PLEKHG5 (11737974_s_at) / Fold change /veh PLEKHG5 (11737974_s_at) / RFU LRRC4B (11730491_at) / Fold change /veh LRRC4B (11730491_at) / RFU GIMAP4 (11747438_a_at) / Fold change /veh GIMAP4 (11747438_a_at) / RFU KRT8 (11758183_x_at) / Fold change /veh KRT8 (11758183_x_at) / RFU CNN1 (11734310_a_at) / Fold change /veh CNN1 (11734310_a_at) / RFU VPS37D (11726825_at) / Fold change /veh VPS37D (11726825_at) / RFU C10orf10 (11716522_x_at) / Fold change /veh C10orf10 (11716522_x_at) / RFU KIR2DL2 /// KIR2DL4 /// KIR2DL5A /// KIR2DL5B /// KIR2DS1 /// KIR2DS2 /// KIR2DS3 /// KIR2DS4 /// KIR3DL3 /// KIR3DL3 /// KIR3DS1 (11738374_at) / Fold change /veh KIR2DL2 /// KIR2DL4 /// KIR2DL5A /// KIR2DL5B /// KIR2DS1 /// KIR2DS2 /// KIR2DS3 /// KIR2DS4 /// KIR3DL3 /// KIR3DL3 /// KIR3DS1 (11738374_at) / RFU C1QL1 (11718748_at) / Fold change /veh C1QL1 (11718748_at) / RFU TMPRSS4 (11747572_a_at) / Fold change /veh TMPRSS4 (11747572_a_at) / RFU HAMP (11756126_x_at) / Fold change /veh HAMP (11756126_x_at) / RFU RNFT2 (11725882_a_at) / Fold change /veh RNFT2 (11725882_a_at) / RFU NR4A2 (11747474_a_at) / Fold change /veh NR4A2 (11747474_a_at) / RFU ABCC12 (11746883_a_at) / Fold change /veh ABCC12 (11746883_a_at) / RFU TMEM136 (11760407_x_at) / Fold change /veh TMEM136 (11760407_x_at) / RFU CLDN22 /// WWC2 (11732394_at) / Fold change /veh CLDN22 /// WWC2 (11732394_at) / RFU HLA-DPB1 (11760878_x_at) / Fold change /veh HLA-DPB1 (11760878_x_at) / RFU SPINT1 (11716480_a_at) / Fold change /veh SPINT1 (11716480_a_at) / RFU GAP43 (11754022_s_at) / Fold change /veh GAP43 (11754022_s_at) / RFU A4GNT (11735810_at) / Fold change /veh A4GNT (11735810_at) / RFU PRB3 (11715151_x_at) / Fold change /veh PRB3 (11715151_x_at) / RFU TUBB4B (11761932_at) / Fold change /veh TUBB4B (11761932_at) / RFU CAPN14 (11732068_a_at) / Fold change /veh CAPN14 (11732068_a_at) / RFU TMCC2 (11721928_a_at) / Fold change /veh TMCC2 (11721928_a_at) / RFU IRGQ (11745062_a_at) / Fold change /veh IRGQ (11745062_a_at) / RFU FAM174B (11720279_a_at) / Fold change /veh FAM174B (11720279_a_at) / RFU TMPRSS4 (11748680_a_at) / Fold change /veh TMPRSS4 (11748680_a_at) / RFU FAM212B (11763350_a_at) / Fold change /veh FAM212B (11763350_a_at) / RFU PLEKHG5 (11743358_a_at) / Fold change /veh PLEKHG5 (11743358_a_at) / RFU ZSCAN30 (11745921_a_at) / Fold change /veh ZSCAN30 (11745921_a_at) / RFU CMKLR1 (11741424_a_at) / Fold change /veh CMKLR1 (11741424_a_at) / RFU LOC101060620 /// MAPK8IP1 (11723275_at) / Fold change /veh LOC101060620 /// MAPK8IP1 (11723275_at) / RFU SPTSSB (11747773_x_at) / Fold change /veh SPTSSB (11747773_x_at) / RFU PRSS12 (11739890_at) / Fold change /veh PRSS12 (11739890_at) / RFU BIN1 (11741810_x_at) / Fold change /veh BIN1 (11741810_x_at) / RFU WNT11 (11732464_a_at) / Fold change /veh WNT11 (11732464_a_at) / RFU C10orf10 (11716521_a_at) / Fold change /veh C10orf10 (11716521_a_at) / RFU C5orf56 (11738089_at) / Fold change /veh C5orf56 (11738089_at) / RFU CYB561 (11721691_x_at) / Fold change /veh CYB561 (11721691_x_at) / RFU ANKRD19P (11752326_a_at) / Fold change /veh ANKRD19P (11752326_a_at) / RFU OR2T12 /// OR2T33 /// OR2T8 (11738714_s_at) / Fold change /veh OR2T12 /// OR2T33 /// OR2T8 (11738714_s_at) / RFU VCAN (11748164_a_at) / Fold change /veh VCAN (11748164_a_at) / RFU JSRP1 (11732532_at) / Fold change /veh JSRP1 (11732532_at) / RFU KRTAP10-11 (11738290_x_at) / Fold change /veh KRTAP10-11 (11738290_x_at) / RFU MYO3A (11730013_a_at) / Fold change /veh MYO3A (11730013_a_at) / RFU EBF3 (11725865_a_at) / Fold change /veh EBF3 (11725865_a_at) / RFU CAMK2N1 (11719241_x_at) / Fold change /veh CAMK2N1 (11719241_x_at) / RFU C5orf56 (11738088_a_at) / Fold change /veh C5orf56 (11738088_a_at) / RFU OLFML3 (11715873_a_at) / Fold change /veh OLFML3 (11715873_a_at) / RFU LOC100653217 /// NTM (11731650_a_at) / Fold change /veh LOC100653217 /// NTM (11731650_a_at) / RFU MAPK11 (11762145_a_at) / Fold change /veh MAPK11 (11762145_a_at) / RFU FIZ1 (11724087_x_at) / Fold change /veh FIZ1 (11724087_x_at) / RFU OASL (11726364_x_at) / Fold change /veh OASL (11726364_x_at) / RFU SOX15 (11748057_x_at) / Fold change /veh SOX15 (11748057_x_at) / RFU CD79A (11719716_a_at) / Fold change /veh CD79A (11719716_a_at) / RFU HIST1H1D (11736915_at) / Fold change /veh HIST1H1D (11736915_at) / RFU CASKIN2 (11723855_a_at) / Fold change /veh CASKIN2 (11723855_a_at) / RFU LOC730098 (11760151_x_at) / Fold change /veh LOC730098 (11760151_x_at) / RFU OR4N2 (11742367_at) / Fold change /veh OR4N2 (11742367_at) / RFU PRRT2 (11749266_a_at) / Fold change /veh PRRT2 (11749266_a_at) / RFU SNX32 (11753110_a_at) / Fold change /veh SNX32 (11753110_a_at) / RFU CDHR5 (11726645_a_at) / Fold change /veh CDHR5 (11726645_a_at) / RFU RCAN1 (11760418_a_at) / Fold change /veh RCAN1 (11760418_a_at) / RFU FAM167A (11723789_a_at) / Fold change /veh FAM167A (11723789_a_at) / RFU FAM26E (11764081_at) / Fold change /veh FAM26E (11764081_at) / RFU ISYNA1 (11749810_s_at) / Fold change /veh ISYNA1 (11749810_s_at) / RFU ACY1 (11761880_at) / Fold change /veh ACY1 (11761880_at) / RFU 11764098_at / Fold change /veh 11764098_at / RFU SAMD14 (11745864_x_at) / Fold change /veh SAMD14 (11745864_x_at) / RFU NPB (11741838_a_at) / Fold change /veh NPB (11741838_a_at) / RFU TMPRSS6 (11731388_a_at) / Fold change /veh TMPRSS6 (11731388_a_at) / RFU KRTAP10-2 (11738614_at) / Fold change /veh KRTAP10-2 (11738614_at) / RFU ARHGAP8 /// PRR5-ARHGAP8 (11727945_x_at) / Fold change /veh ARHGAP8 /// PRR5-ARHGAP8 (11727945_x_at) / RFU KRTAP5-7 /// NADSYN1 (11734609_at) / Fold change /veh KRTAP5-7 /// NADSYN1 (11734609_at) / RFU RASL12 (11751679_a_at) / Fold change /veh RASL12 (11751679_a_at) / RFU CDKN2B (11736163_a_at) / Fold change /veh CDKN2B (11736163_a_at) / RFU PRF1 (11729649_at) / Fold change /veh PRF1 (11729649_at) / RFU, ZNF638 /// ZNF638-IT1 / Fold change vs veh, ZNF638 /// ZNF638-IT1 / RFU, PANK3 / Fold change vs veh, PANK3 / RFU, SH3YL1 / Fold change vs veh, SH3YL1 / RFU, ZEB2 / Fold change vs veh, ZEB2 / RFU, NRIP1 / Fold change vs veh, NRIP1 / RFU, PTTG1IP / Fold change vs veh, PTTG1IP / RFU, CAPN2 / Fold change vs veh, CAPN2 / RFU, MED14 / Fold change vs veh, MED14 / RFU, SNORA58 / Fold change vs veh, SNORA58 / RFU, C1orf63 / Fold change vs veh, C1orf63 / RFU, LRRFIP1 / Fold change vs veh, LRRFIP1 / RFU, NDUFAF7 / Fold change vs veh, NDUFAF7 / RFU, SLC12A2 / Fold change vs veh, SLC12A2 / RFU, IBTK / Fold change vs veh, IBTK / RFU, ESF1 / Fold change vs veh, ESF1 / Fold change vs veh, TMEM50B / RFU, TAOK1 / Fold change vs veh, TAOK1 / RFU, ACBD3 / Fold change vs veh, ACBD3 / RFU, TMA16 / Fold change vs veh, TMA16 / RFU, RWDD3 / Fold change vs veh, RWDD3 / RFU, BCAT1 / Fold change vs veh, BCAT1 / RFU, EDEM3 / Fold change vs veh, EDEM3 / RFU, TMEM33 / Fold change vs veh, TMEM33 / RFU, WDR75 / Fold change vs veh, WDR75 / RFU, AHCTF1 / Fold change vs veh, AHCTF1 / RFU, TFRC / Fold change vs veh, TFRC / RFU, ZDHHC17 / Fold change vs veh, ZDHHC17 / RFU, NOM1 / Fold change vs veh, NOM1 / RFU, ARL8B / Fold change vs veh, ARL8B / RFU, ZBTB11 / Fold change vs veh, ZBTB11 / RFU, TAMM41 / Fold change vs veh, TAMM41 / RFU, KIAA1704 /// LOC100996395 / Fold change vs veh, KIAA1704 /// LOC100996395 / RFU, ING1 / Fold change vs veh, ING1 / RFU, TRMT61B / Fold change vs veh, TRMT61B / RFU, FUBP3 / Fold change vs veh, FUBP3 / RFU, TP53 / Fold change vs veh, TP53 / RFU, TNKS2 / Fold change vs veh, TNKS2 / RFU, ZFP14 / Fold change vs veh, ZFP14 / RFU, ACTR2 / Fold change vs veh, ACTR2 / RFU, PPP3R1 / Fold change vs veh, PPP3R1 / RFU, PIK3R1 / Fold change vs veh, PIK3R1 / RFU, HNRNPA1 / Fold change vs veh, HNRNPA1 / RFU, RNF170 / Fold change vs veh, RNF170 / RFU, ZNF28 / Fold change vs veh, ZNF28 / RFU, RNGTT / Fold change vs veh, RNGTT / RFU, OGT / Fold change vs veh, OGT / RFU, BRD1 / Fold change vs veh, BRD1 / RFU, MARS / Fold change vs veh, MARS / RFU, ZNF655 / Fold change vs veh, ZNF655 / RFU, FAHD1 / Fold change vs veh, FAHD1 / RFU, BDP1 / Fold change vs veh, BDP1 / RFU, LRRCC1 / Fold change vs veh, LRRCC1 / RFU, ARID1A / Fold change vs veh, ARID1A / RFU, ZNF146 / Fold change vs veh, ZNF146 / RFU, ZNF330 / Fold change vs veh, ZNF330 / RFU, GPN3 / Fold change vs veh, GPN3 / RFU, C9orf123 / Fold change vs veh, C9orf123 / RFU, N4BP2L2 / Fold change vs veh, N4BP2L2 / RFU, ARFIP1 / Fold change vs veh, ARFIP1 / RFU, FAM179B / Fold change vs veh, FAM179B / RFU, BCL10 / Fold change vs veh, BCL10 / RFU, UHRF1BP1L / Fold change vs veh, UHRF1BP1L / RFU, BET1 / Fold change vs veh, BET1 / RFU, CNOT2 / Fold change vs veh, CNOT2 / RFU, ZNF268 / Fold change vs veh, ZNF268 / Fold change vs veh, ZNF507 / RFU, DGCR2 / Fold change vs veh, DGCR2 / RFU, WDSUB1 / Fold change vs veh, WDSUB1 / Fold change vs veh, HSP90B1 /// MIR3652 / RFU, ADSS / Fold change vs veh, ADSS / RFU, GK / Fold change vs veh, GK / RFU, ZNF148 / Fold change vs veh, ZNF148 / RFU, TAF9 / Fold change vs veh, TAF9 / RFU, SLC1A5 / Fold change vs veh, SLC1A5 / RFU, SLMO2 / Fold change vs veh, SLMO2 / RFU, ABCC4 / Fold change vs veh, ABCC4 / RFU, LOC101060439 /// RAP1B / Fold change vs veh, LOC101060439 /// RAP1B / RFU, RFX7 / Fold change vs veh, RFX7 / RFU, GTPBP10 / Fold change vs veh, GTPBP10 / RFU, CNEP1R1 / Fold change vs veh, CNEP1R1 / RFU, BIVM-ERCC5 /// ERCC5 / Fold change vs veh, BIVM-ERCC5 /// ERCC5 / RFU, ILF3 / Fold change vs veh, ILF3 / RFU 11762660_at / Fold change /veh 11762660_at / RFU VCAN (11757783_s_at) / Fold change /veh VCAN (11757783_s_at) / RFU DDX43 (11728927_at) / Fold change /veh DDX43 (11728927_at) / RFU KRT8 (11758188_x_at) / Fold change /veh KRT8 (11758188_x_at) / RFU NKD1 (11759106_at) / Fold change /veh NKD1 (11759106_at) / RFU SRD5A1 (11742802_a_at) / Fold change /veh SRD5A1 (11742802_a_at) / RFU TPSAB1 /// TPSB2 (11721975_s_at) / Fold change /veh TPSAB1 /// TPSB2 (11721975_s_at) / RFU GSTM3 (11746129_a_at) / Fold change /veh GSTM3 (11746129_a_at) / RFU IL23R (11737362_x_at) / Fold change /veh IL23R (11737362_x_at) / RFU TMEM51 (11727254_a_at) / Fold change /veh TMEM51 (11727254_a_at) / RFU PIWIL2 (11732686_x_at) / Fold change /veh PIWIL2 (11732686_x_at) / RFU ORM1 (11744905_x_at) / Fold change /veh ORM1 (11744905_x_at) / RFU CCDC152 (11743942_at) / Fold change /veh CCDC152 (11743942_at) / RFU ECM1 (11717891_a_at) / Fold change /veh ECM1 (11717891_a_at) / RFU IL23R (11748794_a_at) / Fold change /veh IL23R (11748794_a_at) / RFU TNFAIP8L3 (11732012_x_at) / Fold change /veh TNFAIP8L3 (11732012_x_at) / RFU MBOAT4 (11741988_at) / Fold change /veh MBOAT4 (11741988_at) / RFU 11764193_at / Fold change /veh 11764193_at / RFU TMEM53 (11763286_at) / Fold change /veh TMEM53 (11763286_at) / RFU MAGEB2 (11727129_at) / Fold change /veh MAGEB2 (11727129_at) / RFU TMEM200A (11744735_a_at) / Fold change /veh TMEM200A (11744735_a_at) / RFU CCDC152 (11751479_a_at) / Fold change /veh CCDC152 (11751479_a_at) / RFU FAM211A (11726209_a_at) / Fold change /veh FAM211A (11726209_a_at) / RFU RGS16 (11746705_a_at) / Fold change /veh RGS16 (11746705_a_at) / RFU VCAN (11755009_s_at) / Fold change /veh VCAN (11755009_s_at) / RFU RHOB (11743442_s_at) / Fold change /veh RHOB (11743442_s_at) / RFU RGS16 (11720943_a_at) / Fold change /veh RGS16 (11720943_a_at) / RFU RGS16 (11720944_at) / Fold change /veh RGS16 (11720944_at) / RFU, VPS4B / Fold change vs veh, VPS4B / RFU, CREB1 / Fold change vs veh, CREB1 / RFU, DNAJC13 / Fold change vs veh, DNAJC13 / RFU, GNAQ / Fold change vs veh, GNAQ / RFU, CDK5R1 / Fold change vs veh, CDK5R1 / RFU, ZRANB3 / Fold change vs veh, ZRANB3 / RFU, CUL4A / Fold change vs veh, CUL4A / RFU, CCNY / Fold change vs veh, CCNY / RFU, UFL1 / Fold change vs veh, UFL1 / RFU, COG3 / Fold change vs veh, COG3 / RFU, DIAPH2 / Fold change vs veh, DIAPH2 / RFU, SKA2 / Fold change vs veh, SKA2 / RFU, AFF3 / Fold change vs veh, AFF3 / RFU, LMF1 / Fold change vs veh, LMF1 / RFU, IPO11 / Fold change vs veh, IPO11 / RFU, DFFB / Fold change vs veh, DFFB / RFU, FOXP1 / Fold change vs veh, FOXP1 / RFU, CARD8 / Fold change vs veh, CARD8 / RFU, STRN3 / Fold change vs veh, STRN3 / RFU, ADK / Fold change vs veh, ADK / RFU, RASSF2 / Fold change vs veh, RASSF2 / RFU, WIPF1 / Fold change vs veh, WIPF1 / RFU, LARP1B / Fold change vs veh, LARP1B / RFU, RASA1 / Fold change vs veh, RASA1 / RFU, RB1 / Fold change vs veh, RB1 / RFU, PPFIA1 / Fold change vs veh, PPFIA1 / RFU, MAT2A / Fold change vs veh, MAT2A / RFU, CCT5 / Fold change vs veh, CCT5 / RFU, WDR92 / Fold change vs veh, WDR92 / RFU, CUX1 / Fold change vs veh, CUX1 / RFU, TTC7A / Fold change vs veh, TTC7A / RFU, TMEM135 / Fold change vs veh, TMEM135 / RFU, DEPTOR / Fold change vs veh, DEPTOR / RFU, CPM / Fold change vs veh, CPM / RFU, DNAJB6 / Fold change vs veh, DNAJB6 / RFU, CACNA2D3 / Fold change vs veh, CACNA2D3 / RFU, DTX4 / Fold change vs veh, DTX4 / RFU, TFCP2 / Fold change vs veh, TFCP2 / RFU, GMCL1 /// GMCL1P1 / Fold change vs veh, GMCL1 /// GMCL1P1 / RFU, AEBP2 / Fold change vs veh, AEBP2 / RFU, SNHG1 /// SNORD22 /// SNORD25 /// SNORD26 /// SNORD27 /// SNORD28 /// SNORD29 /// SNORD31 / Fold change vs veh, SNHG1 /// SNORD22 /// SNORD25 /// SNORD26 /// SNORD27 /// SNORD28 /// SNORD29 /// SNORD31 / Fold change (Aza/veh), C12orf56 (ProbeSet 11735607_a_at) / Fold change (ACY-1035/veh), C12orf56 (ProbeSet 11735607_a_at) / Fold change (Aza/veh), FGFR1OP (ProbeSet 11751329_s_at) / Fold change (ACY-1035/veh), FGFR1OP (ProbeSet 11751329_s_at) / Fold change (Aza/veh), VPS36 (ProbeSet 11739960_a_at) / Fold change (ACY-1035/veh), VPS36 (ProbeSet 11739960_a_at) / RFU SYPL1 (11715823_x_at) / Fold change /veh SYPL1 (11715823_x_at) / RFU IGFBP7 (11715501_s_at) / Fold change /veh IGFBP7 (11715501_s_at) / RFU REEP3 (11722064_at) / Fold change /veh REEP3 (11722064_at) / RFU IGLL1 (11728026_x_at) / Fold change /veh IGLL1 (11728026_x_at): dose or concentration left out as unconfirmed
Conditions: ProbeSet 11721611_a_at; LIST D

`Nc1ncn([C@@H]2O[C@H](CO)[C@@H](O)[C@H]2O)c(=O)n1` [azacitidine] was tested, and the “RFU, IPO11” value was 64.89 RFU.
